Assay [1] addresses T1, Cannabinoid receptor 1 (Homo sapiens, UniProt P21554). The assay is described as follows: Agonist activity at human CB1 receptor expressed in CHO cells assessed as inhibition of forskolin-induced cAMP production at 100 nM incubated for 90 mins in presence of CP55940 ligand by HitHunter assay relative to control. The assay is classed as functional, cell-based. The settings on record: filed as agonist.

In assay [2] the target is T2, Cannabinoid receptor 2 (Homo sapiens, UniProt P34972). The assay is described as follows: Agonist activity at human CB2 receptor expressed in CHO cells assessed as inhibition of forskolin-induced cAMP production at 10 uM incubated for 90 mins by HitHunter assay. The assay is classed as functional, cell-based. The settings on record: filed as agonist. (cAMP levels reflect the balance of adenylyl cyclase and phosphodiesterase activity.)
T2 sequence (P34972 whole entry): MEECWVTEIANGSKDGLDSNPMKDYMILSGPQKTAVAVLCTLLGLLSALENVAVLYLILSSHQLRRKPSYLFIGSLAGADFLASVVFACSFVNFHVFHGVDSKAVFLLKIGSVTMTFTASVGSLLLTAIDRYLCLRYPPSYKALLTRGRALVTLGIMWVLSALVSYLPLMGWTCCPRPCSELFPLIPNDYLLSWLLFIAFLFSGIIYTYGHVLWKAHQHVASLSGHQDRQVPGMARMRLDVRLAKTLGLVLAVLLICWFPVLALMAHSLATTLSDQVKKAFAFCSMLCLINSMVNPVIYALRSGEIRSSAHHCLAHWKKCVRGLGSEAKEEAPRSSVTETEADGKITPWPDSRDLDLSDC

Assay [3] addresses T1, Cannabinoid receptor 1. The assay is described as follows: Agonist activity at human CB1 receptor expressed in CHO cells assessed as inhibition of forskolin-induced cAMP production incubated for 90 mins in presence of GAT211 ligand by HitHunter assay. Format: functional, cell-based.
Assay [4] concerns the target T1, Cannabinoid receptor 1. The assay is described as follows: Agonist activity at human CB1 receptor expressed in CHO cells assessed as inhibition of forskolin-induced cAMP production incubated for 90 mins in presence of FM6b ligand by HitHunter assay. Format: functional, cell-based.
Assay [5] deals with T1, Cannabinoid receptor 1. The assay is described as follows: Agonist activity at human CB1 receptor expressed in CHO cells assessed as inhibition of forskolin-induced cAMP production at 100 nM incubated for 90 mins in presence of FM6b ligand by HitHunter assay relative to control. The assay is classed as functional, cell-based. Particulars: filed as agonist.
Assay [6] deals with T1, Cannabinoid receptor 1. In words: Displacement of [3H]CP55940 from human CB1 receptor expressed in CHO cell membrane incubated for 2 hrs. Format: cell membranes. (Loss of bound radioactivity is the signal in a displacement assay; it reports binding, not function.)
Assay [7] addresses T1, Cannabinoid receptor 1. In words: Displacement of [3H]CP55940 from human CB1 receptor expressed in CHO cell membrane at 0.001 to 10 uM incubated for 2 hrs relative to control. Format: cell membranes. The settings on record: dose 0.001-10 µM.
The target in assay [8] is T1, Cannabinoid receptor 1. The assay is described as follows: Agonist activity at human CB1 receptor expressed in CHO cells assessed as inhibition of forskolin-induced cAMP production at 100 nM incubated for 90 mins in presence of GAT211 ligand by HitHunter assay relative to control. Format: functional, cell-based.
For assay [9], the target named is T2, Cannabinoid receptor 2. The assay is described as follows: Displacement of [3H]CP55940 from human CB2 receptor expressed in CHO cell membrane at 0.001 to 10 uM incubated for 2 hrs relative to control. Particulars: dose 0.001-10 µM. The assay is classed as cell membranes.
For assay [10], the target named is T1, Cannabinoid receptor 1. The assay is described as follows: Agonist activity at human CB1 receptor expressed in CHO cells assessed as inhibition of forskolin-induced cAMP production incubated for 90 mins in presence of CP55940 ligand by HitHunter assay. The assay is classed as functional, cell-based.
Assay [11] deals with T2, Cannabinoid receptor 2. The assay is described as follows: Displacement of [3H]CP55940 from human CB2 receptor expressed in CHO cell membrane incubated for 2 hrs. Format: cell membranes.
Assay [12] concerns the target T2, Cannabinoid receptor 2. The assay is described as follows: Agonist activity at human CB2 receptor expressed in CHO cells assessed as inhibition of forskolin-induced cAMP production incubated for 90 mins in presence of CP55940 ligand by HitHunter assay. The assay is classed as functional, cell-based.
For assay [13], the target named is T2, Cannabinoid receptor 2. In words: Agonist activity at human CB2 receptor expressed in CHO cells assessed as inhibition of forskolin-induced cAMP production at 100 nM incubated for 90 mins in presence of CP55940 ligand by HitHunter assay relative to control. Format: functional, cell-based. The settings on record: filed as agonist.
For assay [14], the target named is T2, Cannabinoid receptor 2. In words: Agonist activity at human CB2 receptor expressed in CHO cells assessed as inhibition of forskolin-induced cAMP production at 100 nM incubated for 90 mins in presence of FM6b ligand by HitHunter assay relative to control. Format: functional, cell-based. The settings on record: filed as agonist.
For assay [15], the target named is T2, Cannabinoid receptor 2. In words: Agonist activity at human CB2 receptor expressed in CHO cells assessed as inhibition of forskolin-induced cAMP production incubated for 90 mins in presence of FM6b ligand by HitHunter assay. The assay is classed as functional, cell-based.
The test system of assay [16] is BEND3. The assay is described as follows: Disruption of monolayer integrity in mouse BEND3 cells assessed as change in TEER modulation at 135 mins. Format: functional, cell-based.
The test system of assay [17] is BEND3. In words: Disruption of monolayer integrity in mouse BEND3 cells assessed as change in TEER modulation at 180 mins. The assay is classed as functional, cell-based.
Assay [18] concerns the target T2, Cannabinoid receptor 2. The assay is described as follows: Agonist activity at human CB2 receptor expressed in CHO cells assessed as inhibition of forskolin-induced cAMP production at 1.8 nM incubated for 90 mins by HitHunter assay relative to control. Format: functional, cell-based. Further details: scale not given: the % may be the effect or the level left. The settings on record: filed as agonist.

Assay [19] concerns the target T2, Cannabinoid receptor 2. In words: Displacement of [3H]CP55940 from human CB2 receptor. The settings on record: filed as agonist.
Assay [20] concerns the target T1, Cannabinoid receptor 1. In words: Displacement of [3H]CP55940 from human CB1 receptor. The settings on record: filed as agonist.
Assay [21] deals with HepG2. The assay is described as follows: Anti-steatosis activity against oleate/palmitate-induced human HepG2 cells assessed as induction of lipolysis at 25 uM incubated for 24 hrs. Format: functional, cell-based.
Assay [22] deals with HepG2. The assay is described as follows: Induction of lipid accumulation in human HepG2 cells at 1 uM incubated for 24 hrs by Oil Red O staining based analysis. The assay is classed as functional, cell-based.

Each structure is given as a SMILES string. Active and inactive are the calls of the source. No cut-off for these calls is given here.

T1 sequence (P21554 whole entry): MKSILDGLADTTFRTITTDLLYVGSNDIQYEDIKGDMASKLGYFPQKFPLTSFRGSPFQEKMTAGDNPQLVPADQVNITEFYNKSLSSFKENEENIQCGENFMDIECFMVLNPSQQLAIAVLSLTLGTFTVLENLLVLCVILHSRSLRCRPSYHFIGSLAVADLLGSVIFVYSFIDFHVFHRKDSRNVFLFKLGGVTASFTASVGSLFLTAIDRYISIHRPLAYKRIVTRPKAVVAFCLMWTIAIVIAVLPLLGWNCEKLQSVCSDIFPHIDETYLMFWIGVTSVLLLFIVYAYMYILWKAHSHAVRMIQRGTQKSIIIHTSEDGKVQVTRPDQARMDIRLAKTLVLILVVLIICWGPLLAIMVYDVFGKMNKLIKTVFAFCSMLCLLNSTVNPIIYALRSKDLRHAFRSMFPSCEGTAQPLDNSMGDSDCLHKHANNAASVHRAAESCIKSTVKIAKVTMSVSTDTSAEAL

The term Emax denotes the maximal effect, on the per cent scale that the assay sets. The term EC50 denotes the concentration giving half of the maximal effect. `Cc1c(Br)cc(C(=O)NC2CCCCCC2)c(=O)n1CCCCCn1cc(CCC(=O)NCC(c2ccccc2)c2c(-c3ccccc3)[nH]c3ccccc23)nn1` (stereo unspecified): the Emax on Cannabinoid receptor 1 [1] came out at 58%; at Cannabinoid receptor 1 [5], 120%; at Cannabinoid receptor 1 [7] (filed as agonist), 42%; on Cannabinoid receptor 1 [8], 1.3%; at Cannabinoid receptor 2 [9] (filed as agonist), 80%. The outcome on Cannabinoid receptor 2 [2] was Active. The EC50 at Cannabinoid receptor 1 [3] was 63.1 nM; at Cannabinoid receptor 1 [4] it was 2000 nM; on Cannabinoid receptor 1 [10], 20 nM. Moreover, at Cannabinoid receptor 1 [6], the IC50 was 20 nM.

Regarding `Cc1c(Br)cc(C(=O)NC2CCCCCC2)c(=O)n1CCCn1cc(CCCC(=O)NCC(c2ccccc2)c2c(-c3ccccc3)[nH]c3ccccc23)nn1` (stereo unspecified), the Emax was 79% at Cannabinoid receptor 1 [1]; 120% on Cannabinoid receptor 1 [5]; 104% on Cannabinoid receptor 2 [13]; 31% at Cannabinoid receptor 1 [7]; 73% on Cannabinoid receptor 2 [14]; 0.335% at Cannabinoid receptor 1 [8]. The same compound displayed a maximum response (Emax) on Cannabinoid receptor 2 [9] (filed as agonist) of 160%. Besides, the result at Cannabinoid receptor 2 [2] was Active. Also, the IC50 is 100 nM at Cannabinoid receptor 2 [11] (read-out: IC50) and 25.1 nM on Cannabinoid receptor 1 [6]. The EC50 was 15.8 nM on Cannabinoid receptor 1 [3]; 7.94 nM on Cannabinoid receptor 2 [12]; 631 nM at Cannabinoid receptor 1 [4]; 25.1 nM on Cannabinoid receptor 1 [10]; 398 nM on Cannabinoid receptor 2 [15].

For `O=C1OC2(c3ccc(O)cc3Oc3cc(O)ccc32)c2ccccc21`, the result in the assay on BEND3 [16] and with BEND3 [17] was Active.

With `Cc1c(Br)cc(C(=O)NC2CCCCCC2)c(=O)n1Cc1ccc(F)cc1`, the Activity at Cannabinoid receptor 2 [18] was 104%. In addition, the values for the IC50 on Cannabinoid receptor 2 [11] (read-out: pIC50 (converted)) and at Cannabinoid receptor 1 [6] were 6.31 nM and 0.794 nM, respectively. The outcome at Cannabinoid receptor 2 [19] and on Cannabinoid receptor 1 [20] was Active. Besides, the Emax stood at 29% at Cannabinoid receptor 1 [7] and 13% on Cannabinoid receptor 2 [9]. Besides, the result in the assay on HepG2 [21] was inactive.

In the case of `Cc1c(C(=O)NN2CCCCC2)nn(-c2ccc(Cl)cc2Cl)c1-c1ccc(Cl)cc1`, the result with HepG2 [22] was Active.

For the origin of these results see ChEMBL document CHEMBL6096683, “Novel Orthosteric/Allosteric Ligands of Cannabinoid Receptors: An Unexpected Pharmacological Profile” (J Med Chem, 2025).
